Results from publication PMC9290507, “Rh^II‐Catalyzed De‐symmetrization of Ethane‐1,2‐dithiol and Propane‐1,3‐dithiol Yields Metallo‐β‐lactamase Inhibitors” (Chemmedchem, 2021).

Tests used:
NDM‐1 = biological target: T1, NDM‐1 (Klebsiella pneumoniae, UniProt C7C422); test: Fluorescence-based enzyme activity assay (Fluorocillin), NDM-1; format: biochemical
T1 construct: made in house
Procedure: (§1) In order to investigate the structure‐activity relationships of the dithiol library, we measured the inhibitory activity of 3 a–x in a fluorescence‐based enzyme activity assay (Table 1). Two relevant β‐lactamase isoforms, NDM‐1 and VIM‐1 were selected for in vitro assays. The fluorogenic substrate fluorocillin[15] was prepared according to literature and its conversion was monitored as described previously.[6] In general, a linear relationship between the potency of 3 a–x towards both enzymes could be observed, however, inhibitory potency towards VIM‐1 was almost tenfold higher (Figure 3). A very clear preference for the propane‐1,3‐dithiol over ethane‐1,2‐dithiol compounds could be observed from matched molecular pairs.
(§2) Activity assays for MBLs were performed at room temperature in black polystyrol 96well plates (Corning, Corning, NY, USA) using dicefalotinodifluorofluorescein (Fluorocillin) as a substrate. Proteins were diluted in assay buffer (HEPES 50 mM, pH 7.5 containing 0.01 %Triton X‐100), with final protein concentrations of NDM‐1: 3 nM, or VIM‐1: 4 nM. Samples were supplemented with an equimolar amount of ZnCl2. An amount of 1 μL of compounds 3 a–3 x at different concentrations was incubated with 89 μL of enzyme in assay buffer. After an incubation period of 30 min at room temperature, 10 μL of Fluorocillin substrate was added to yield the final assay volume of 100 μL. Final concentration of DMSO was 1 %. The fluorescence emitted by the fluorescent product difluorofluorescein was monitored every 45 s for 30 cycles using a Tecan fluorescent plate reader (Infinite 200; excitation at 495 nm and emission at 525 nm) and was compared with a standard curve. The rate of the enzymatic reaction was obtained by dividing the quantity of the fluorescent product (RFU) by time (min). Negative controls were measured in the absence of enzyme, whereas the positive controls were measured in the presence of enzyme and in the absence of inhibitors. The inhibitory effect of each substance was measured in triplicate in three independent experiments. IC50 values were calculated using data obtained from measurements with at least eight different inhibitor concentrations, applying a sigmoidal dose–response (variable slope with four parameters) equation using GraphPad Prism 5 (GraphPad Software, La Jolla, CA, USA) software. In order to investigate the inhibitory activity of 3 a, 3 o, or 3 s in the presence of a high Zn^2+ concentration, assay buffer containing an additional 100 μM ZnCl2 was used. The assay was performed as described above with NDM‐1 or VIM‐1 and 10 μM of 3 a, 3 o, or 3 s.

VIM‐1 = biological target: T2, VIM‐1 (Pseudomonas aeruginosa, UniProt A0A0F7KYQ8); test: Fluorescence-based enzyme activity assay (Fluorocillin), VIM-1; format: biochemical
T2 construct: made in house
Procedure: as §1, §2

E. coli VIM‐1 (T2544) [1] = test: Checkerboard synergy assay with imipenem, E. coli VIM-1; format: cell-based; conditions: for Imipenem MIC: E. coli VIM-1 (T2544)
Procedure: (§3) To investigate this, the MIC of imipenem or combined with various concentrations of compound 3a, 3o, or 3 s was determined against E. coli transformants producing NDM‐1 or VIM‐1 (Table 3 and 4).
(§4) Minimal inhibitory concentrations (MICs) of imipenem monohydrate (Sigma‐Aldrich)±compound 3 a, 3 o, or 3 s against transformed E. coli strains producing NDM‐1 or VIM‐1 were determined according to microdilution method established by Clinical and Laboratory Standards Institute (CLSI).^20 The checkerboard assay was performed to test for synergy in vitro. The microtiter‐plates were set up with serial doubling dilutions of compound 3 a, 3 o, or 3 s (2‐128 mg/L) and imipenem (0.125‐128 mg/L).

VIM‐2 = biological target: T3, VIM‐2 (Escherichia coli, UniProt Q5U7L7); test: Kd determination using isothermal titration calorimetry; format: binding; conditions: ITC, 250 μM compound into 50 μM VIM-2, 25 °C
T3 construct: made in house
Procedure: The next step was the investigation of the binding thermodynamics of 3 a, 3 o, and 3 s. For these experiments we used a closely related enzyme VIM‐2 which is an isoform of VIM‐1 and can be recombinantly expressed in very high concentrations, suitable tor isothermal titration calorimetry (ITC) experiments (Figure 6).
VIM‐2 expression and purification was published elsewhere.[19] Before the measurement the VIM‐2 protein was dialyzed against 500 times the volume of buffer (50 mM Tris, 500 mM NaCl, 5 % (v/v) glycerol with a pH=8) using a dialysis membrane with a 3.5 kDa MWCO. For the measurements the compounds 3 a, 3 o, or 3 s, respectively, were diluted using the dialyses buffer to a final concentration of 250 μM containing a final DMSO concentration of 1 %. The VIM‐2 protein was diluted to a final concentration of 50 μM, supplemented with 1 % DMSO using the dialysis buffer and pure DMSO. For the control measurements dialysis buffer was supplemented with pure DMSO to a final concentration of 1 %. The measurements were performed using an “Affinity ITC” (TA‐Instruments) in reversed mode, with a stir rate of 75 rpm and a temperature of 25 °C. The VIM‐2 was placed in the cell and the respective compound in the syringe. For blank measurements either the protein or compound dilution were exchanged with buffer containing 1 % DMSO. For the measurements of 3 a and 3 s one time 0.5 μl was injected followed by 50 injections of 2 μl with a spacing of 240 s. 3 o was measured with one injection of 0.5 μl followed by 35 injections of 2 μl with a spacing of 240 s. The data were analyzed using the “NanoAnalyze Data Analysis” software (version 3.10.0; TA‐Instruments).

E. coli VIM‐1 (T2544) [2] = test: Intrinsic antimicrobial activity (MIC, CLSI microdilution), E. coli VIM-1; format: cell-based; conditions: Escherichia coli
Procedure: as §4

E. coli NDM‐1 (T2359) [3] = test: Checkerboard synergy assay with imipenem, E. coli NDM-1; format: cell-based; conditions: for Imipenem MIC: E. coli NDM-1 (T2359)
Procedure: as §3, §4

E. coli NDM‐1 (T2359) [4] = test: Intrinsic antimicrobial activity (MIC, CLSI microdilution), E. coli NDM-1; format: cell-based
Procedure: as §4

[5] = 10 μM compound, additional 100 μM ZnCl2 in assay buffer
[6] = Escherichia coli, read-out: Imipenem MIC

T1 sequence (C7C422 29-270, looked up, species assumed): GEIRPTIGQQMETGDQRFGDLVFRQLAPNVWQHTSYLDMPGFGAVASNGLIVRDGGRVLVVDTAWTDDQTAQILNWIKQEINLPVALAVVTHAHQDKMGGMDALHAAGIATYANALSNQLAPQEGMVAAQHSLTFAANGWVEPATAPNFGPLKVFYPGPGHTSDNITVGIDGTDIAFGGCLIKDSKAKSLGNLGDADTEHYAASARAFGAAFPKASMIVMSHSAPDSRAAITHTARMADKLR

CN(C(=O)CSCCS)[C@H]1CCCC[C@@H]1O (relative stereo) [3 v, N‐((1S*,2S*)‐2‐Hydroxycyclohexyl)‐2‐((2‐mercaptoethyl)thio)‐N‐methylacetamide]
IC50 (NDM‐1): 5500 ± 300 nM | IC50 (VIM‐1): 330 ± 20 nM

O=C1CCCC1SCCCS (stereo not shown) [3 a, 2‐((3‐Mercaptopropyl)thio)cyclopentanone]
Imipenem MIC (E. coli VIM‐1 (T2544) [1]; +2 μg/ml compound): 32 µg/mL | Imipenem MIC (E. coli VIM‐1 (T2544) [1]; +4 μg/ml compound): 32 µg/mL | Imipenem MIC (E. coli VIM‐1 (T2544) [1]; +8 μg/ml compound): 16 µg/mL | Imipenem MIC (E. coli VIM‐1 (T2544) [1]; +16 μg/ml compound): 16 µg/mL | Imipenem MIC (E. coli VIM‐1 (T2544) [1]; +32 μg/ml compound): 16 µg/mL | Imipenem MIC (E. coli VIM‐1 (T2544) [1]; +64 μg/ml compound): 16 µg/mL | Imipenem MIC (E. coli VIM‐1 (T2544) [1]; +128 μg/ml compound): 8 µg/mL | Kd (VIM‐2): 880 nM | Kd (VIM‐2; inset of Figure 6): 878 nM | MIC (E. coli VIM‐1 (T2544) [2]): > 512 µg/mL | Imipenem MIC (E. coli NDM‐1 (T2359) [3]; +2 μg/ml compound): 128 µg/mL | Imipenem MIC (E. coli NDM‐1 (T2359) [3]; +4 μg/ml compound): 128 µg/mL | Imipenem MIC (E. coli NDM‐1 (T2359) [3]; +8 μg/ml compound): 128 µg/mL | Imipenem MIC (E. coli NDM‐1 (T2359) [3]; +16 μg/ml compound): 64 µg/mL | Imipenem MIC (E. coli NDM‐1 (T2359) [3]; +32 μg/ml compound): 64 µg/mL | Imipenem MIC (E. coli NDM‐1 (T2359) [3]; +64 μg/ml compound): 64 µg/mL | Imipenem MIC (E. coli NDM‐1 (T2359) [3]; +128 μg/ml compound): 32 µg/mL | MIC (E. coli NDM‐1 (T2359) [4]; Escherichia coli): > 512 µg/mL | Intrinsic antimicrobial activity (E. coli NDM‐1 (T2359) [4]; compound alone, E. coli transformants producing NDM-1 or VIM-1 (Table 2)): no intrinsic antimicrobial activity | IC50 (NDM‐1): 480 ± 70 nM | Effect of added zinc ions on inhibitory activity (NDM-1) (NDM‐1; [5]): does not impair the inhibitory activity | IC50 (VIM‐1): 170 ± 40 nM | Effect of added zinc ions on inhibitory activity (VIM-1) (VIM‐1; [5]): does not impair the inhibitory activity

Cc1ccc(C(=O)CSCCS)cc1 [3 b, 2‐((2‐Mercaptoethyl)thio)‐1‐(p–tolyl)ethanone]
IC50 (NDM‐1): 3910 ± 420 nM | IC50 (VIM‐1): 220 ± 30 nM

Cc1ccc(C(=O)CSCCCS)cc1 [3 c, 2‐((3‐Mercaptopropyl)thio)‐1‐(p–tolyl)ethanone]
IC50 (NDM‐1): 250 ± 60 nM | IC50 (VIM‐1): 70 ± 10 nM

O=C(CSCCS)c1ccc(Cl)cc1 [3 d, 1‐(4‐Chlorophenyl)‐2‐((2‐mercaptoethyl)thio)ethanone]
IC50 (NDM‐1): 5630 ± 1190 nM | IC50 (VIM‐1): 230 ± 10 nM

O=C(CSCCCS)c1ccc(F)cc1 [3 e, 1‐(4‐Fluorophenyl)‐2‐((3‐mercaptopropyl)thio)ethanone]
IC50 (NDM‐1): 600 ± 30 nM | IC50 (VIM‐1): 230 ± 50 nM

COc1ccc(C(=O)CSCCS)cc1 [3 f, 2‐((2‐Mercaptoethyl)thio)‐1‐(4‐methoxyphenyl)ethanone]
IC50 (NDM‐1): 1340 ± 320 nM | IC50 (VIM‐1): 180 ± 10 nM

COc1ccc(C(=O)CSCCCS)cc1 [3 g, 2‐((3‐Mercaptopropyl)thio)‐1‐(4‐methoxyphenyl)ethanone]
IC50 (NDM‐1): 430 ± 20 nM | IC50 (VIM‐1): 140 nM

O=C1OCCC1SCCS (stereo not shown) [3 h, 3‐((2‐Mercaptoethyl)thio)dihydrofuran‐2(3H)‐one]
IC50 (NDM‐1): 3630 ± 470 nM | IC50 (VIM‐1): 460 ± 30 nM

COC(=O)C(SCCS)c1ccc(Cl)cc1 (stereo not shown) [3 i, Methyl 2‐(4‐chlorophenyl)‐2‐((2‐mercaptoethyl)thio)acetate]
IC50 (NDM‐1): 880 ± 160 nM | IC50 (VIM‐1): 190 ± 10 nM

CCOC(=O)C(SCCS)c1ccc([N+](=O)[O-])cc1 (stereo not shown) [3 j, Ethyl 2‐((2‐mercaptoethyl)thio)‐2‐(4‐nitrophenyl)acetate]
IC50 (NDM‐1): 1550 ± 420 nM | IC50 (VIM‐1): 900 ± 60 nM

CCOC(=O)C(SCCCS)c1ccc([N+](=O)[O-])cc1 (stereo not shown) [3 k, Ethyl 2‐((3‐mercaptopropyl)thio)‐2‐(4‐nitrophenyl)acetate]
IC50 (NDM‐1): 7790 ± 1300 nM | IC50 (VIM‐1): 730 ± 50 nM

COC(=O)CC(SCCCS)C(=O)OC (stereo not shown) [3 l, Dimethyl 2‐((3‐mercaptopropyl)thio)succinate]
IC50 (NDM‐1): 440 ± 110 nM | IC50 (VIM‐1): 40 ± 10 nM

CN1CCC(SCCCS)C1=O (stereo not shown) [3 m, 3‐((3‐Mercaptopropyl)thio)‐1‐methylpyrrolidin‐2‐one]
IC50 (NDM‐1): 1580 ± 220 nM | IC50 (VIM‐1): 180 nM

O=C1C(SCCS)CCN1c1ccccc1 (stereo not shown) [3 n, 3‐((2‐Mercaptoethyl)thio)‐1‐phenylpyrrolidin‐2‐one]
IC50 (NDM‐1): 1410 ± 70 nM | IC50 (VIM‐1): 80 nM

O=C1C(SCCS)CCN1c1cccc(C(F)(F)F)c1 (stereo not shown) [3 p, 3‐((2‐Mercaptoethyl)thio)‐1‐(3‐(trifluoromethyl)phenyl)pyrrolidin‐2‐one]
IC50 (NDM‐1): 2080 ± 110 nM | IC50 (VIM‐1): 220 ± 10 nM

O=C1C(SCCCS)CCN1c1cccc(C(F)(F)F)c1 (stereo not shown) [3 q, 3‐((3‐Mercaptopropyl)thio)‐1‐(3‐(trifluoromethyl)phenyl)pyrrolidin‐2‐one]
IC50 (NDM‐1): 480 ± 10 nM | IC50 (VIM‐1): 70 ± 10 nM

O=C1C(SCCS)CCN1c1nccs1 (stereo not shown) [3 r, 3‐((2‐Mercaptoethyl)thio)‐1‐(thiazol‐2‐yl)pyrrolidin‐2‐one]
IC50 (NDM‐1): 1540 ± 30 nM | IC50 (VIM‐1): 40 ± 20 nM

N#Cc1ccc(N2CCC(SCCS)C2=O)cc1 (stereo not shown) [3 t, 4‐(3‐((2‐Mercaptoethyl)thio)‐2‐oxopyrrolidin‐1‐yl)benzonitrile]
IC50 (NDM‐1): 1190 ± 120 nM | IC50 (VIM‐1): 100 ± 20 nM

O=C(CSCCCS)N1CCN(Cc2ccc(Cl)cc2)CC1 [3 u, 1‐(4‐(4‐Chlorobenzyl)piperazin‐1‐yl)‐2‐((3‐mercaptopropyl)thio)ethan‐1‐one]
IC50 (NDM‐1): 3310 ± 120 nM | IC50 (VIM‐1): 300 ± 20 nM

CN(Cc1ccc(Cl)cc1)C(=O)CSCCS [3 w, N‐(4‐Chlorobenzyl)‐2‐((2‐mercaptoethyl)thio)‐N‐methylacetamide]
IC50 (NDM‐1): 580 ± 30 nM | IC50 (VIM‐1): 100 ± 10 nM

Cc1ccc(S(=O)(=O)N2CCN(C(=O)CSCCS)CC2)cc1 [3 x, 2‐((2‐Mercaptoethyl)thio)‐1‐(4‐tosylpiperazin‐1‐yl)ethanone]
IC50 (NDM‐1): 2400 ± 130 nM | IC50 (VIM‐1): 400 ± 30 nM

C[C@@H](O)[C@H]1C(=O)N2C(C(=O)O)=C(SCCN=CN)C[C@H]12 [Imipenem, imipenem, reference compound]
MIC (E. coli VIM‐1 (T2544) [1]; [6]): 32 µg/mL | MIC (E. coli NDM‐1 (T2359) [3]; [6]): 128 µg/mL
